From patent publication US11214803B2, “Modulators of YAP1 expression” (Ionis Pharmaceuticals, Inc., priority 2019, dated 2022)
pIC50: −log10 of the molar value. Strand notation (5' to 3'): a small letter for the sugar, then the base; units joined by * are phosphorothioate-linked, units joined directly phosphodiester-linked; [ ] holds rarer units or linkages, { } end groups; capitals alone tell only the bases. e = 2'-O-(2-methoxyethyl) (MOE); k = constrained ethyl (cEt); [5mC] = 5-methylcytosine; d = 2'-deoxy (DNA); m = 2'-O-methyl

Tested on: Yap1 mRNA
Assay: Dose-dependent inhibition of human Yap1 in SNU-449 cells (Example 9, RTS36584)
Assay type: cell-based
Details: free uptake; for % UTC (Yap1 mRNA): approximately 48 hours; for pIC50: linear regression on a log/linear plot
Description: Modified oligonucleotides described in the studies above were tested at various doses in SNU-449 cells. Cultured SNU-449 cells at a density of 10,000 cells per well were treated using free uptake with modified oligonucleotides diluted to concentrations described in the tables below. After approximately 48 hours, Yap1 mRNA levels were measured as previously described using the Human Yap1 primer-probe set RTS36584. Yap1 mRNA levels were normalized to total RNA content, as measured by RIBOGREEN®. Results are presented in the tables below as percent control of the amount of Yap1 mRNA relative to untreated control cells (% UTC). IC50s were calculated using a linear regression on a log/linear plot of the data in excel.

Row | Substance | % UTC (Yap1 mRNA) (31.3 nM) [% UTC] | % UTC (Yap1 mRNA) (125.0 nM) [% UTC] | % UTC (Yap1 mRNA) (500.0 nM) [% UTC] | % UTC (Yap1 mRNA) (2000.00 nM) [% UTC] | pIC50
1 | 1198494 (kG*kT*dG*d[5mC]*dT*dT*dT*dG*dG*dA*dA*eG*kA*eT*k[5mC]*eT; antisense) [compound 1198494] | 59 | 37 | 24 | 13 | 7.00
2 | 1198384 (kT*dA*dT*dT*dA*dG*dA*dG*dT*dA*dT*kG*eT*kG*eG*k[5mC]; antisense) [compound 1198384] | 76 | 50 | 24 | 17 | 7.00
3 | 1198527 (kA*kA*dA*dG*dT*dG*dT*dA*dT*dG*dT*e[5mC]*kA*eG*kA*eA; antisense) [compound 1198527] | 63 | 35 | 12 | 3 | 7.00
4 | 1198502 (kA*kG*dA*dT*dT*dT*dA*dG*dG*dA*dT*eG*k[5mC]*eA*kT*eG; antisense) [compound 1198502] | 76 | 50 | 29 | 15 | 6.70
5 | 1198697 (kA*kG*dT*dG*dT*dA*dT*dG*dT*d[5mC]*dA*dG*kA*eA*kG*eA) [compound 1198697] | 60 | 29 | 7 | 1 | 7.40
6 | 1198211 (kA*kT*dT*dA*dG*dA*dG*dT*dA*dT*dG*eT*eG*eG*k[5mC]*kA) [compound 1198211] | 72 | 37 | 23 | 12 | 7.00
7 | 1198355 (kA*kA*kA*dG*dT*dG*dT*dA*dT*dG*dT*d[5mC]*kA*eG*kA*eA; antisense) [compound 1198355] | 63 | 34 | 10 | 4 | 7.00
8 | 1200794 (kA*kG*kA*dG*dT*mA*dT*dG*dT*dG*dG*d[5mC]*dA*kA*kT*kA; antisense) [compound 1200794] | 85 | 59 | 31 | 13 | 6.70
9 | 1198466 (kA*kG*dA*dG*dT*dA*dT*dG*dT*dG*dG*e[5mC]*kA*eA*kT*eA; antisense) [compound 1198466] | 68 | 44 | 18 | 6 | 7.00
10 | 1198365 (k[5mC]*kT*kA*dA*dG*dT*dA*dA*dG*dG*dT*dT*kT*e[5mC]*k[5mC]*e[5mC]; antisense) [compound 1198365] | 59 | 38 | 15 | 5 | 7.00
11 | 1097247 (kT*kA*kA*dA*dG*dT*dG*dT*dA*dT*dG*dT*d[5mC]*kA*kG*kA; antisense) [compound 1097247] | 58 | 28 | 8 | 2 | 7.40
12 | 1198724 (kA*eG*kA*dG*dT*dA*dT*dG*dT*dG*dG*d[5mC]*eA*eA*kT*kA; antisense) [compound 1198724] | 56 | 25 | 8 | 3 | > 7.52
13 | 1198543 (kA*kT*kT*dG*dT*d[5mC]*dT*d[5mC]*dA*dT*dG*d[5mC]*k[5mC]*kT*kT*eA; antisense) [compound 1198543] | 75 | 42 | 19 | 6 | 7.00
14 | 1200803 (kG*kG*kT*dA*dT*mA*dA*d[5mC]*dT*dG*dG*dG*d[5mC]*kA*kA*kA; antisense) [compound 1200803] | 72 | 52 | 34 | 18 | 6.70
15 | 1198347 (kG*kT*kA*dA*dT*dA*dT*dT*dG*d[5mC]*dA*dA*kT*e[5mC]*kT*eG) [compound 1198347] | 67 | 54 | 24 | 8 | 7.00
